Laboratory results: patent US9695155B2, “Herbicidal substituted pyrimidinyloxy benzene compounds” (E. I. DU PONT DE NEMOURS AND COMPANY, priority 2013, dated 2017)

How the values were obtained:
kochia = assay: Test A preemergence; type: in vivo, Kochia scoparia
In short: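 Pre- and postemergence greenhouse screen. Soil: loam + sand. Spray carrier: solvent mixture, non-phytotoxic, with surfactant. Post timing at 1–2 leaves, height 2–10 cm. Readout: visual injury on a 0–100 scale roughly 10 days after application, untreated plants as reference.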

ducksalad = assay: Test C flooded paddy test; type: in vivo, Heteranthera limosa; conditions: Flood, scale 0 to 100 (0 no effect, 100 complete control), 13 to 15 days
In short: (§1)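 Ratings were visual and made relative to untreated controls after 13 to 15 greenhouse days.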

barnyardgrass [1] = assay: Test C flooded paddy test; type: in vivo, Echinochloa crus-galli; conditions: Flood, scale 0 to 100 (0 no effect, 100 complete control), 13 to 15 days
In short: as §1

lambsquarters = assay: Test E preemergence; type: in vivo, Chenopodium album; conditions: for Lambsquarters plant response rating: scale 0 to 100 (0 no effect, 100 complete control); for Plant response rating, Lambsquarters: scale 0 to 100, 0 no effect, 100 complete control
In short: (§2)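 Compound in a non-phytotoxic solvent mixture with surfactant was applied preemergence to seeds in silt loam soil, or postemergence to plants 2 to 18 cm tall grown in peat-based potting medium. Plants were kept in a greenhouse for 14 to 21 days, then rated visually against untreated controls on a 0 (no effect) to 100 (complete control) scale.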

wild poinsettia = assay: Test E preemergence; type: in vivo, Euphorbia heterophylla; conditions: for Poinsettia, Wild plant response rating: scale 0 to 100 (0 no effect, 100 complete control); for Plant response rating, Poinsettia, Wild: scale 0 to 100, 0 no effect, 100 complete control
In short: as §2

surinam grass = assay: Test E preemergence; type: in vivo, Brachiaria decumbens; conditions: for Surinam Grass plant response rating: scale 0 to 100 (0 no effect, 100 complete control); for Plant response rating, Surinam Grass: scale 0 to 100, 0 no effect, 100 complete control
In short: as §2

large (Lg) crabgrass = assay: Test E preemergence; type: in vivo, Digitaria sanguinalis; conditions: for Crabgrass, Large plant response rating: scale 0 to 100 (0 no effect, 100 complete control); for Plant response rating, Crabgrass, Large: scale 0 to 100, 0 no effect, 100 complete control
In short: as §2

fall panicum = assay: Test E preemergence; type: in vivo, Panicum dichotomiflorum; conditions: for Panicum, Fall plant response rating: scale 0 to 100 (0 no effect, 100 complete control); for Plant response rating, Panicum, Fall: scale 0 to 100, 0 no effect, 100 complete control
In short: as §2

goosegrass = assay: Test E preemergence; type: in vivo, Eleusine indica; conditions: for Goosegrass plant response rating: scale 0 to 100 (0 no effect, 100 complete control); for Plant response rating, Goosegrass: scale 0 to 100, 0 no effect, 100 complete control
In short: as §2

johnsongrass = assay: Test E preemergence; type: in vivo, Sorghum halepense; conditions: for Johnsongrass plant response rating: scale 0 to 100 (0 no effect, 100 complete control); for Plant response rating, Johnsongrass: scale 0 to 100, 0 no effect, 100 complete control
In short: as §2

ragweed = assay: Test E preemergence; type: in vivo, Ambrosia elatior; conditions: for Ragweed plant response rating: scale 0 to 100 (0 no effect, 100 complete control); for Plant response rating, Ragweed: scale 0 to 100, 0 no effect, 100 complete control
In short: as §2

barnyardgrass [2] = assay: Test E preemergence; type: in vivo, Echinochloa crus-galli; conditions: for Plant response rating, Barnyardgrass: scale 0 to 100, 0 no effect, 100 complete control
In short: as §2

dayflower = assay: Test E preemergence; type: in vivo, Commelina virginica; conditions: for Dayflower, VA plant response rating: scale 0 to 100 (0 no effect, 100 complete control); for Plant response rating, Dayflower, VA: scale 0 to 100, 0 no effect, 100 complete control
In short: as §2

hairy beggarticks = assay: Test E preemergence; type: in vivo, Bidens pilosa; conditions: for Plant response rating, Beggarticks: scale 0 to 100, 0 no effect, 100 complete control
In short: as §2

[3] = 31 g ai/ha, preemergence, scale 0 to 100 (0 no effect, 100 complete control)

CCOc1cnn(-c2c(C#N)cccc2Oc2ncc(F)cn2)c1 [Compound 89]
Plant response rating, Kochia (kochia; 125 g ai/ha, 0 to 100 scale where 0 is no effect and 100 is complete control): 90
Kochia plant response rating (kochia; 500 g ai/ha, 0 to 100 scale, 0 no effect, 100 complete control, approx. 10 days): 100
Plant response rating, Ducksalad (ducksalad; 62 g ai/ha): 0
Plant response rating, Ducksalad (ducksalad; 125 g ai/ha): 65
Plant response rating, Ducksalad (ducksalad; 250 g ai/ha): 80
Plant response rating, Barnyardgrass (barnyardgrass [1]; 62 g ai/ha): 0
Plant response rating, Barnyardgrass (barnyardgrass [1]; 125 g ai/ha): 15
Plant response rating, Barnyardgrass (barnyardgrass [1]; 250 g ai/ha): 20
Lambsquarters plant response rating (lambsquarters; 31 g ai/ha): 20
Lambsquarters plant response rating (lambsquarters; 62 g ai/ha): 5
Plant response rating, Lambsquarters (lambsquarters; 125 g ai/ha): 95
Plant response rating, Lambsquarters (lambsquarters; 250 g ai/ha): 100
Poinsettia, Wild plant response rating (wild poinsettia; 31 g ai/ha): 20
Poinsettia, Wild plant response rating (wild poinsettia; 62 g ai/ha): 40
Plant response rating, Poinsettia, Wild (wild poinsettia; 125 g ai/ha): 70
Plant response rating, Poinsettia, Wild (wild poinsettia; 250 g ai/ha): 85
Surinam Grass plant response rating (surinam grass; 31 g ai/ha): 0
Surinam Grass plant response rating (surinam grass; 62 g ai/ha): 0
Plant response rating, Surinam Grass (surinam grass; 125 g ai/ha): 10
Plant response rating, Surinam Grass (surinam grass; 250 g ai/ha): 75
Crabgrass, Large plant response rating (large (Lg) crabgrass; 31 g ai/ha): 35
Crabgrass, Large plant response rating (large (Lg) crabgrass; 62 g ai/ha): 85
Plant response rating, Crabgrass, Large (large (Lg) crabgrass; 125 g ai/ha): 100
Plant response rating, Crabgrass, Large (large (Lg) crabgrass; 250 g ai/ha): 100
Panicum, Fall plant response rating (fall panicum; 31 g ai/ha): 0
Panicum, Fall plant response rating (fall panicum; 62 g ai/ha): 65
Plant response rating, Panicum, Fall (fall panicum; 125 g ai/ha): 100
Plant response rating, Panicum, Fall (fall panicum; 250 g ai/ha): 100
Goosegrass plant response rating (goosegrass; 31 g ai/ha): 0
Goosegrass plant response rating (goosegrass; 62 g ai/ha): 0
Plant response rating, Goosegrass (goosegrass; 125 g ai/ha): 5
Plant response rating, Goosegrass (goosegrass; 250 g ai/ha): 50
Johnsongrass plant response rating (johnsongrass; 31 g ai/ha): 0
Johnsongrass plant response rating (johnsongrass; 62 g ai/ha): 10
Plant response rating, Johnsongrass (johnsongrass; 125 g ai/ha): 50
Plant response rating, Johnsongrass (johnsongrass; 250 g ai/ha): 100
Ragweed plant response rating (ragweed; 31 g ai/ha): 65
Ragweed plant response rating (ragweed; 62 g ai/ha): 80
Plant response rating, Ragweed (ragweed; 125 g ai/ha): 80
Plant response rating, Ragweed (ragweed; 250 g ai/ha): 90
Barnyardgrass plant response rating (barnyardgrass [2]; [3]): 0
Plant response rating, Barnyardgrass (barnyardgrass [2]; Preemergence, 62 g ai/ha): 20
Plant response rating, Barnyardgrass (barnyardgrass [2]; preemergence, 125 g ai/ha): 70
Plant response rating, Barnyardgrass (barnyardgrass [2]; preemergence, 250 g ai/ha): 98
Dayflower, VA plant response rating (dayflower; 31 g ai/ha): 0
Dayflower, VA plant response rating (dayflower; 62 g ai/ha): 60
Plant response rating, Dayflower, VA (dayflower; 125 g ai/ha): 80
Plant response rating, Dayflower, VA (dayflower; 250 g ai/ha): 98
Beggarticks plant response rating (hairy beggarticks; [3]): 35
Plant response rating, Beggarticks (hairy beggarticks; Preemergence, 62 g ai/ha): 60
Plant response rating, Beggarticks (hairy beggarticks; preemergence, 125 g ai/ha): 80
Plant response rating, Beggarticks (hairy beggarticks; preemergence, 250 g ai/ha): 95
